One block for each molecule: values may come before it.
Legend:
[1] = test system: GR RNA, crystallized (RNA, riboswitch) GGACAUAUAAUCGCGUGGAUAUGGCACGCAAGUUUCUACCGGGCACCGUAAAUGUCCGACUAUGUCC; assay: X-ray crystallography; details: cobalt hexammine 30–50 mM, ammonium acetate 600–650 mM, 10 mM K-HEPES pH 7.5, PEG 3000, 24 °C
[2] = test system: GR wild type (xpt-pbuX guanine riboswitch aptamer) (RNA, riboswitch) GGACAUAUAAUCGCGUGGAUAUGGCACGCAAGUUUCUACCGGGCACCGUAAAUGUCCGACUAUGUCCA; assay: ITC; details: 100 mM KCl, 20 mM MgCl2, 50 mM K-HEPES, pH 7.5, 25 °C; for KD: single-site fit; for binding: no binding, highest concentration for this compound not stated
[3] = test system: GR(A19C-U77G) (RNA, riboswitch) GGACCUAUAAUCGCGUGGAUAUGGCACGCAAGUUUCUACCGGGCACCGUAAAUGUCCGACUAGGUCCA; assay: ITC; details: 100 mM KCl, 20 mM MgCl2, 50 mM K-HEPES; pH 7.5, 25 °C, single-site fit
[4] = test system: GR(C74G) (RNA, riboswitch) GGACAUAUAAUCGCGUGGAUAUGGCACGCAAGUUUCUACCGGGCACCGUAAAUGUCCGAGUAUGUCCA; assay: ITC; details: 100 mM KCl, 20 mM MgCl2, 50 mM K-HEPES; pH 7.5, 25 °C, single-site fit
[5] = test system: GR A19G C74U U77C (RNA, riboswitch) GGACGUAUAAUCGCGUGGAUAUGGCACGCAAGUUUCUACCGGGCACCGUAAAUGUCCGAUUACGUCCA; assay: ITC; details: 100 mM KCl, 20 mM MgCl2, 50 mM K-HEPES; pH 7.5, 25 °C, single-site fit
[6] = test system: GR(C74A) (RNA, riboswitch) GGACAUAUAAUCGCGUGGAUAUGGCACGCAAGUUUCUACCGGGCACCGUAAAUGUCCGAAUAUGUCCA; assay: ITC; details: 100 mM KCl, 20 mM MgCl2, 50 mM K-HEPES; pH 7.5, 25 °C, single-site fit
[7] = test system: GR A19U U77A (RNA, riboswitch) GGACUUAUAAUCGCGUGGAUAUGGCACGCAAGUUUCUACCGGGCACCGUAAAUGUCCGACUAAGUCCA; assay: ITC; details: 100 mM KCl, 20 mM MgCl2, 50 mM K-HEPES; pH 7.5, 25 °C, single-site fit
[8] = test system: GR A19C C74U U77G (RNA, riboswitch) GGACCUAUAAUCGCGUGGAUAUGGCACGCAAGUUUCUACCGGGCACCGUAAAUGUCCGAUUAGGUCCA; assay: ITC; details: 100 mM KCl, 20 mM MgCl2, 50 mM K-HEPES; pH 7.5, 25 °C, single-site fit
[9] = test system: GR A19G U77 (RNA, riboswitch) GGACGUAUAAUCGCGUGGAUAUGGCACGCAAGUUUCUACCGGGCACCGUAAAUGUCCGACUAUGUCCA; assay: ITC; details: 100 mM KCl, 20 mM MgCl2, 50 mM K-HEPES; pH 7.5, 25 °C, single-site fit
[10] = test system: GR A19U C74U U77A (RNA, riboswitch) GGACUUAUAAUCGCGUGGAUAUGGCACGCAAGUUUCUACCGGGCACCGUAAAUGUCCGAUUAAGUCCA; assay: ITC; details: 100 mM KCl, 20 mM MgCl2, 50 mM K-HEPES; pH 7.5, 25 °C, single-site fit
[11] = test system: GR A19G U77C (RNA, riboswitch) GGACGUAUAAUCGCGUGGAUAUGGCACGCAAGUUUCUACCGGGCACCGUAAAUGUCCGACUACGUCCA; assay: ITC; details: 100 mM KCl, 20 mM MgCl2, 50 mM K-HEPES; pH 7.5, 25 °C, single-site fit
[12] = test system: GR(C74U) (RNA, riboswitch) GGACAUAUAAUCGCGUGGAUAUGGCACGCAAGUUUCUACCGGGCACCGUAAAUGUCCGAUUAUGUCCA; assay: ITC; details: 100 mM KCl, 20 mM MgCl2, 50 mM K-HEPES; pH 7.5, 25 °C, single-site fit

binding [1]: yes
KD [2]: 17,000 ± 1000 nM
Structure (SMILES): Nc1nc(OCC2CCCCC2)c2[nH]cnc2n1

KD [2]: 17,000 ± 1000 nM
Structure (SMILES): CNc1nc2[nH]cnc2c(=O)[nH]1

KD [2]: 10 ± 4 nM
Structure (SMILES): Nc1nc2[nH]c(O)nc2c(=O)[nH]1

KD [2]: 5600 ± 600 nM
Structure (SMILES): NS(=O)(=O)c1ccc(Nc2nc(OCC3CCCCC3)c3nc[nH]c3n2)cc1

binding ([1]; 1.6 Å): yes
KD [3]: 0.85 ± 0.31 nM
KD [2]: 2.1 ± 0.7 nM
Structure (SMILES): Nc1nc2[nH]cnc2c(=O)[nH]1

binding [2]: no
Structure (SMILES): O=c1c2[nH]cnc2nc2ncccn12

binding [2]: no
Structure (SMILES): Nc1nc(OCc2ccccc2)c2[nH]cnc2n1

KD [4]: 42,000 ± 2000 nM
KD [5]: 44,000 ± 4000 nM
KD [6]: 85,000 ± 25,000 nM
KD [7]: 7.8 ± 1.6 nM
KD [8]: 4100 ± 400 nM
KD [9]: 5.4 ± 1.2 nM
KD [3]: 2.2 ± 0.6 nM
KD [10]: 66,000 ± 5000 nM
KD [11]: 4.9 ± 1.2 nM
KD [2]: 8.8 ± 0.5 nM
KD [12]: 7500 ± 800 nM
Structure (SMILES): O=C(COc1ccccc1)Nc1nc2[nH]cnc2c(=O)[nH]1

KD [2]: 230,000 ± 10,000 nM
Structure (SMILES): CC(C)(C)C(=O)Nc1nc2[nH]cnc2c(=O)[nH]1

KD [2]: 240 ± 30 nM
Structure (SMILES): O=c1[nH]cnc2nc[nH]c12

KD [3]: 4.5 ± 2.0 nM
KD [2]: 7.4 ± 0.5 nM
Structure (SMILES): CC(C)C(=O)Nc1nc2[nH]cnc2c(=O)[nH]1

binding [1]: yes
KD [2]: 300 ± 10 nM
Structure (SMILES): CC(=O)Nc1nc2[nH]cnc2c(=O)[nH]1

KD [2]: 25,000 ± 3000 nM
Structure (SMILES): Nc1nc(NC2CC2)c2nc[nH]c2n1

binding [1]: yes
KD [2]: 36 ± 13 nM
Structure (SMILES): Nc1nc2[nH]c(N)nc2c(=O)[nH]1

KD [2]: 14,000 ± 1000 nM
Structure (SMILES): Nc1nc2c(=O)[nH]cnc2[nH]1

KD [2]: 79,000 ± 1000 nM
Structure (SMILES): CC1CC(O)n2c(nc3[nH]cnc3c2=O)N1 (stereo not shown)

KD [2]: 6400 ± 400 nM
Structure (SMILES): COc1nc(N)nc2[nH]cnc12

KD [2]: 340 ± 30 nM
Structure (SMILES): Nc1nc(Cl)c2[nH]cnc2n1

From paper PMC7287874 (2020)
